US20170007615A1, “Antibacterial Compounds” (priority 2014, published 2017)
Values after ≈ are worked out from the molar mass of the structure shown. Marks after values point to notes of the source that are not given here. Positions of bridges follow the written chain, without caps; N, C: chain ends. Non-standard residues stand in square brackets, D forms with d. Residues, ends and D or L forms follow the SMILES beside them. Dab = NCC[C@H](N)C(=O)O

Assays:
[1] = test system: F. philomiragia (ATCC 25015); settings: Table 9; (a) No measurable antibacterial activity
[2] = test system: P. aeruginosa (ATCC 27853); settings: ATCC 27853
E. coli (NDM-1; CTX-M15) = assay: Septicaemia infection model, survival; settings: two doses
[3] = test system: A. baumannii (ATCC 19606); settings: for MIC of Compound (μg/ml) in the presence of PMBN (128 μg/ml): Table 4
E. coli (ATCC 25922) [4] = settings: for MIC of Compound (μg/ml) in the presence of PMBN (128 μg/ml): Table 1, (b) No effect
[5] = test system: A. baumannii (ATCC 19606); assay: microbe, parasite or virus in culture; settings: Acinetobacter baumannii, ATCC19606, read-out: MIC Compound alone
[6] = test system: N. gonorrheae (ATCC 49226); assay: Antibacterial activity (MIC), Gram-negative type strain; type: cell-based, Neisseria gonorrhoeae; settings: Neisseria gonorrhoeae, ATCC49226; Table 13
S. aureus (ATCC 29213) = assay: Antibacterial activity (MIC), Gram-positive type strain; type: cell-based, Staphylococcus aureus; settings: Staphylococcus aureus, ATCC29213; Table 13
E. faecalis (ATCC 29212) = assay: as above; type: cell-based, Enteroccocus faecalis; settings: Enterococcus faecalis, ATCC29212; Table 13
[7] = test system: H. influenzae (ATCC 49247); assay: Antibacterial activity (MIC), Gram-negative type strain; type: cell-based, Haemophilus influenzae; settings: Haemophilus influenzae, ATCC49247; Table 13
E. coli (ATCC 25922) [8] = assay: microbe, parasite or virus in culture; settings: Escherichia coli, ATCC25922, read-out: MIC Compound alone, Table 1
[9] = test system: K. pneumonia colistin-resistant strains; assay: microbe, parasite or virus in culture; type: cell-based; settings: K. pneumonia strains raised by selection with 2 or 4 μg/mL of colistin on MH agar
[10] = test system: A. baumannii colistin-resistant strains; assay: microbe, parasite or virus in culture; type: cell-based; settings: A. baumannii strains raised by selection with 2 or 4 μg/mL of colistin on MH agar
[11] = test system: E. coli colistin-resistant strains; assay: microbe, parasite or virus in culture; type: cell-based; settings: E. coli strains raised by selection with 2 or 4 μg/mL of colistin on MH agar
B. cepacia (ATCC 25416) = assay: Antibacterial activity (MIC), alone and with colistin; type: cell-based, Burkholderia cepacia; settings: Table 8; (a) No measurable antibacterial activity

CC(C)C[C@@H]1NC(=O)[C@@H](Cc2ccccc2)NC(=O)[C@H](CCN)NC(=O)[C@@H](NC(=O)[C@H](CCN)NC(=O)[C@@H](N)[C@@H](C)O)CCNC(=O)[C@H]([C@@H](C)O)NC(=O)[C@H](CCN)NC(=O)[C@H](CCN)NC1=O [PMBN, Polymyxin B nonapeptide, reference compound] (H-T[Dab][Dab][Dab][dF]L[Dab][Dab]T; lactam 3-C (inferred); N-terminus assumed)
MIC PMBN alone [1]: >32^(a) μg/ml
MIC PMBN alone (E. cloaceae (ATCC 13047); ATCC 13047): >128^(a) μg/ml
MIC PMBN alone [2]: >128^(a) μg/ml
survival at the end of 5 days (E. coli (NDM-1; CTX-M15); PMBN 50 mg/kg SC alone): No mice survived
MIC PMBN alone ([3]; ATCC 19606): >128^(a) μg/ml
MIC PMBN alone (E. coli (ATCC 25922) [4]; ATCC 25922): >128^(a) μg/ml

CCNC(=O)Nc1nc2cc(-c3cnc(NS(=O)(=O)C4CCCC4)nc3)cc(-c3ccc(C)cn3)c2s1 [Compound A-21, 1-[5-[2-(cyclopentylsulfonylamino)pyrimidin-5-yl]-7-(5-methyl-2-pyridyl)-1,3-benzothiazol-2-yl]-3-ethyl-urea]
MIC [5]: 1 µg/mL (≈ 1.86 µM)
MIC [6]: ≤ 0.008 µg/mL
MIC (S. aureus (ATCC 29213)): ≤ 0.002 µg/mL
MIC (E. faecalis (ATCC 29212)): ≤ 0.008 µg/mL
MIC [7]: 0.03 µg/mL (≈ 0.0558 µM)
MIC of Compound (μg/ml) in the presence of PMBN (128 μg/ml) [3]: 0.03 µg/mL

CCNC(=O)Nc1nc2cc(-c3ccn(C)c(=O)c3)cc(-c3ccccn3)c2s1 [Example 51 (WO2007/148093)]
MIC (E. coli (ATCC 25922) [8]): 16 µg/mL (≈ 39.5 µM)
MIC [5]: 4 µg/mL (≈ 9.86 µM)
MIC of Compound (μg/ml) in the presence of PMBN (128 μg/ml) [3]: 0.5 µg/mL
MIC of Compound (μg/ml) in the presence of PMBN (128 μg/ml) (E. coli (ATCC 25922) [4]): 0.06 µg/mL

colistin [reference compound]
MIC (colistin) [9]: ^(a)Raised by selection with 2 or 4 μg/mL of colistin on MH agar: MIC (colistin) = 16-32 μg/mL
MIC colistin alone (E. cloaceae (ATCC 13047); Table 7, (a) No measurable antibacterial activity): >64^(a) μg/ml
MIC (colistin) [10]: ^(a)Raised by selection with 2 or 4 μg/mL of colistin on MH agar: MIC (colistin) = 16-32 μg/mL
MIC (colistin) [11]: ^(a)Raised by selection with 2 or 4 μg/mL of colistin on MH agar: MIC (colistin) = 16-32 μg/mL
MIC colistin alone (E. coli (ATCC 25922) [4]; Table 2): 2 µg/mL
MIC Compound alone (E. coli (ATCC 25922) [4]; Table 12): 4 µg/mL
MIC of Compound (μg/ml) in the presence of PMBN (32 μg/ml) (E. coli (ATCC 25922) [4]; Table 12, (b) No significant effect): 4^(b) μg/ml
MIC colistin alone (B. cepacia (ATCC 25416)): >64^(a) μg/ml

CCNC(=O)Nc1nc2cc(-c3cnc([C@@H](C)OP(=O)(O)O)nc3)cc(-c3ccccn3)c2s1 [Example 152 of WO2013/138860, [(1R)-1-[5-[2-(ethylcarbamoylamino)-7-(2-pyridyl)-1,3-benzothiazol-5-yl]pyrimidin-2-yl]ethyl] dihydrogen phosphate]
survival at the end of 5 days (E. coli (NDM-1; CTX-M15); 100 mg/kg IV alone): No mice survived

CCNC(=O)Nc1nc2cc(-c3cnc(NS(=O)(=O)c4ccccc4C(=O)O)nc3)cc(-c3ccccn3)c2s1 [Compound A-10, 2-[[5-[2-(Ethylcarbamoylamino)-7-(2-pyridyl)-1,3-benzothiazol-5-yl]pyrimidin-2-yl]sulfamoyl]benzoic acid]
MIC (E. coli (ATCC 25922) [8]): > 64 µg/mL
MIC [6]: 0.25 µg/mL (≈ 0.434 µM)
MIC (S. aureus (ATCC 29213)): 2 µg/mL (≈ 3.47 µM)
MIC (E. faecalis (ATCC 29212)): 0.5 µg/mL (≈ 0.869 µM)
MIC [7]: 4 µg/mL (≈ 6.95 µM)
MIC of Compound (μg/ml) in the presence of PMBN (128 μg/ml) (E. coli (ATCC 25922) [4]): 4 µg/mL

CCNC(=O)Nc1nc2cc(-c3cnc(C(C)(O)CO)nc3)cc(-c3ncc(C)cn3)c2s1 (centres unmarked) [Compound A-8, 1-[5-[2-(1,2-Dihydroxy-1-methyl-ethyl)pyrimidin-5-yl]-7-(5-methylpyrimidin-2-yl)-1,3-benzothiazol-2-yl]-3-ethyl-urea]
MIC (E. coli (ATCC 25922) [8]): 4 µg/mL (≈ 8.59 µM)
MIC [5]: 2 µg/mL (≈ 4.3 µM)
MIC of Compound (μg/ml) in the presence of PMBN (128 μg/ml) [3]: 0.25 µg/mL
MIC of Compound (μg/ml) in the presence of PMBN (128 μg/ml) (E. coli (ATCC 25922) [4]): 0.06 µg/mL
